# Assay results: US20060099643A1, “Method for determining the regulation of xenobiotic removal” (priority 2002, published 2006)
# T1: SXR (Homo sapiens, UniProt O75469)
# T1 sequence (O75469 1-434): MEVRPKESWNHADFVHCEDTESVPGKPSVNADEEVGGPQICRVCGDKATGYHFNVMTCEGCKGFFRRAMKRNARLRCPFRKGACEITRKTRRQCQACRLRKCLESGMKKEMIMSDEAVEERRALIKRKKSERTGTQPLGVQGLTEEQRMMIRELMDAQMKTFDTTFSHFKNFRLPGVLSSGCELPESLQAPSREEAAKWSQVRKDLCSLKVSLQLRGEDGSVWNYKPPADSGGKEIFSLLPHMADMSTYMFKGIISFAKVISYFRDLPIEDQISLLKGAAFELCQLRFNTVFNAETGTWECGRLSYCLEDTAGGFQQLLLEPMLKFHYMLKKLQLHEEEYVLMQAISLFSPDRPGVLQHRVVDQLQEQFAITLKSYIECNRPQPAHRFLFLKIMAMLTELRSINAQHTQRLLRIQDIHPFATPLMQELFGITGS
# T2: ER-α (Homo sapiens, UniProt P03372)
# T2 sequence (P03372 1-595): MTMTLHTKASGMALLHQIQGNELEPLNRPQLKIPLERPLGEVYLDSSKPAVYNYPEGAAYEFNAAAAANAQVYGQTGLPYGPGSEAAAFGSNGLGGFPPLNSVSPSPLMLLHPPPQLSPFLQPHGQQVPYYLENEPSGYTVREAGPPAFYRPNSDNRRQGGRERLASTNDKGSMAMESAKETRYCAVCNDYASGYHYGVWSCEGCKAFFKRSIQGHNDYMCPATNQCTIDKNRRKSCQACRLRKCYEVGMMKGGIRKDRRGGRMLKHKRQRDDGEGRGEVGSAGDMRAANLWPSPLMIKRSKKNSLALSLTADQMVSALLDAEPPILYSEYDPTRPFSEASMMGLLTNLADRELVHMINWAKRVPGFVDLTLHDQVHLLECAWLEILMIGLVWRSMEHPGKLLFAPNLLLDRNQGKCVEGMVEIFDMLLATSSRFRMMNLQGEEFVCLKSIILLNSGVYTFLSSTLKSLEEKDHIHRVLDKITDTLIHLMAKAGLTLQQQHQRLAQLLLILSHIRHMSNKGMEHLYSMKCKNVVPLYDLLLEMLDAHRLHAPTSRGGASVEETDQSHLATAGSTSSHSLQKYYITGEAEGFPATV
# T3: ER-α (UniProt P03372 297-554, limits assumed)
# T3 construct: also called estrogen receptor alpha
# T3 sequence (looked up): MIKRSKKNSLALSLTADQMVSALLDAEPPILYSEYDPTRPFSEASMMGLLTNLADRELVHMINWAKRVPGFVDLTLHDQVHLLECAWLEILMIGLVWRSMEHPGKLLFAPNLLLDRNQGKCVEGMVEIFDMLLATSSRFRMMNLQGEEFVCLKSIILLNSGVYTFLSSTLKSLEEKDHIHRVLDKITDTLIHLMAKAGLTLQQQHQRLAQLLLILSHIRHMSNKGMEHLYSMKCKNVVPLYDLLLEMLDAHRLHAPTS
# B1: co-activator peptide SRC3-NR2 (peptide, UniProt Q9Y6Q9 673-695, looked up)
# peptide: MHGSLLQEKHRILHKLLQNGNSP
# notes: Peptide fragment of SRC-3
# How the values were obtained:
# SXR = biological target: T1, SXR; assay: Microplate thermal shift assay (Thermofluor) of SXR with ligands, co-activator peptide SRC1-NR2 and co-repressor peptide NCoR-1; conditions: for ΔΔTm SRC1-NR2: co-activator peptide SRC1-NR2 100 μM; for ΔTm ligand: average of four experiments; for Probability Agonist (statistical probability of agonist state): computed from affinities derived from ΔΔTm with co-regulator peptides (FIG. 3); for ΔTm at 100 µM: read-out: ΔΔTm NcoR1-NR2
# Protocol: A 2 μL ligand solution at 2 times the final concentration was dispensed with a micropipette into a 384 well black wall Greiner plate. Then, 2 μL of the protein dye solution was dispensed on top of the ligand solution in the 384 well plate. The plates were spun to ensure mixing of the protein-dye and ligand solutions followed by layering of 1 μL of silicone oil to prevent evaporation during heating of the samples. […] The values for the co-regulators represent a change in Tm stabilization from the receptor-ligand ΔTm values.
# ER-α [1] = biological target: T2, ER-α; assay: Microplate thermal shift assay (Thermofluor) of ER-α with ligands and co-regulators; format: binding
# Protocol: (§1) A 2 μM ligand solution at 2 times the final concentration was dispensed with a micropipette into a 384 well black wall Greiner plate. Then, 2 μL of the protein dye solution was dispensed on top of the ligand solution in the 384 well plate. The plates were spun to ensure mixing of the protein-dye and ligand solutions followed by layering of 1 μL of silicone oil to prevent evaporation during heating of the samples.
# ER-β [2] = biological target: ER-β (Homo sapiens, UniProt Q92731); assay: Microplate thermal shift assay (Thermofluor) of ER-β with ligands and co-regulators; format: binding
# Protocol: as §1
# ER-α [3] = biological target: T3, ER-α; assay: Thermofluor thermal shift; ER-α 8 µM with 4-OH-tamoxifen 20 µM; peptide 100 µM
# Protocol: as §1
# ER-α [4] = biological target: T3, ER-α; assay: Thermofluor thermal shift; ER-α 8 µM with estrone 20 µM; peptide 100 µM
# Protocol: as §1
# ER-β [5] = biological target: T4, ER-β (UniProt Q92731 256-505, limits assumed); assay: Thermofluor thermal shift; ER-β 8 µM with 2-methoxy-E2 20 µM; peptide 100 µM
# T4 construct: also called estrogen receptor beta
# Protocol: as §1
# ER-β [6] = biological target: T4, ER-β; assay: Thermofluor thermal shift; ER-β 8 µM with estradiol 20 µM; peptide 100 µM
# Protocol: as §1
# ER-α [7] = biological target: T3, ER-α; assay: Thermofluor thermal shift; ER-α 8 µM with 2-methoxy-E2 20 µM; peptide 100 µM
# Protocol: as §1
# ER-β [8] = biological target: T4, ER-β; assay: Thermofluor thermal shift; ER-β 8 µM, no ligand; peptide 100 µM
# Protocol: as §1
# ER-α [9] = biological target: T3, ER-α; assay: Thermofluor thermal shift; ER-α 8 µM, no ligand; peptide 100 µM
# Protocol: as §1
# ER-α [10] = biological target: T3, ER-α; assay: Thermofluor thermal shift; ER-α 8 µM with 17-α-ethylene-E2 20 µM; peptide 100 µM
# Protocol: as §1
# ER-α [11] = biological target: T3, ER-α; assay: Thermofluor thermal shift; ER-α 8 µM with ICI-182780 20 µM; peptide 100 µM
# Protocol: as §1
# ER-β [12] = biological target: T4, ER-β; assay: Thermofluor thermal shift; ER-β 8 µM with 17-α-ethylene-E2 20 µM; peptide 100 µM
# Protocol: as §1
# ER-β [13] = biological target: T4, ER-β; assay: Thermofluor thermal shift; ER-β 8 µM with 4-OH-tamoxifen 20 µM; peptide 100 µM
# Protocol: as §1
# ER-α [14] = biological target: T3, ER-α; assay: Thermofluor thermal shift; ER-α 8 µM with tamoxifen 20 µM; peptide 100 µM
# Protocol: as §1
# ER-β [15] = biological target: T4, ER-β; assay: Thermofluor thermal shift; ER-β 8 µM with ICI-182780 20 µM; peptide 100 µM
# Protocol: as §1
# ER-β [16] = biological target: T4, ER-β; assay: Thermofluor thermal shift; ER-β 8 µM with estrone 20 µM; peptide 100 µM
# Protocol: as §1
# ER-α [17] = biological target: T3, ER-α; assay: Thermofluor thermal shift; ER-α 8 µM with estradiol 20 µM; peptide 100 µM
# Protocol: as §1
# ER-β [18] = biological target: T4, ER-β; assay: Thermofluor thermal shift; ER-β 8 µM with tamoxifen 20 µM; peptide 100 µM
# Protocol: as §1
# [19] = SXR 6 μM, ligand 50 μM, change from the receptor-ligand ΔTm
# ER-β (Homo sapiens, UniProt Q92731), sequence (Q92731 whole entry, species assumed): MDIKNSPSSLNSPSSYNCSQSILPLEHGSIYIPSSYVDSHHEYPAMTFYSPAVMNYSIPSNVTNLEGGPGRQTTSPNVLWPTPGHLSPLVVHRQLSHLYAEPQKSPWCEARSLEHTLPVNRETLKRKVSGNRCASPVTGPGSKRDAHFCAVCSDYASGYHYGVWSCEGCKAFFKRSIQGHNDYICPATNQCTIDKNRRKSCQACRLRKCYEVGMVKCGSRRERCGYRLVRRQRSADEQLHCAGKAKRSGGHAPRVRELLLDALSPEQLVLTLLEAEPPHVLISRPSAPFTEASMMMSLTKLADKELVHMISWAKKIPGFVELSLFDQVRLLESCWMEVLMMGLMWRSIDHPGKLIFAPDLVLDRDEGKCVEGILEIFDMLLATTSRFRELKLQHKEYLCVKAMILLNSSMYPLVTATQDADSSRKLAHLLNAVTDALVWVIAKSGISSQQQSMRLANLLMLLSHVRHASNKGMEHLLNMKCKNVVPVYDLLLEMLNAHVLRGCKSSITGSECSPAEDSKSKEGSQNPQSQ
# T4 sequence (Q92731 256-505 limits assumed): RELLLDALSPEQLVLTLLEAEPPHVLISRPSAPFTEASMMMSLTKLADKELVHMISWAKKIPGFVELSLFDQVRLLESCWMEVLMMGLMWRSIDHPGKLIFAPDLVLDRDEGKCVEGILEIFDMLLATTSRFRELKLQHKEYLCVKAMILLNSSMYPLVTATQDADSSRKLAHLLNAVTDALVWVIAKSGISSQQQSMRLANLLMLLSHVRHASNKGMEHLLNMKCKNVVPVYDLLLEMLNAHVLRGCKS
molecule,measurement,setting,value
CCOC(=O)C(C)(C)Oc1ccc(Cl)cc1 [Clofibrate],Kd,SXR,23 µM
same,ΔΔTm SRC1-NR2,SXR; [19],3.3
same,ΔTm ligand,"SXR; SXR 6 μM, ligand 50 μM",1.3 °C
same,Probability Agonist (statistical probability of agonist state),SXR,0.49
same,ΔTm at 100 µM,SXR,3.4 °C
C[C@]12CC[C@@H]3c4ccc(O)cc4C[C@@H](CCCCCCCCC[S+]([O-])CCCC(F)(F)C(F)(F)F)[C@H]3[C@@H]1CC[C@@H]2O (stereo partly shown) [ICI-182780],"Observed ΔTm Stabilization, SRC3-NR2","ER-α [1]; ER-α 8 μM, ligand 20 μM, co-activator peptide SRC3-NR2 100 μM, change from the receptor-ligand ΔTm",0.2
same,ΔTm at 100 µM,"ER-α [1]; ER-α 8 μM, ligand 20 μM, co-repressor peptide NCoR-1 100 μM, change from the receptor-ligand ΔTm, read-out: Observed ΔTm Stabilization, NCoR1-NR1",-0.6 °C
same,"Observed ΔTm Stabilization, NR2","ER-α [1]; ER-α 8 μM, ligand 20 μM, change in Tm stabilization from the receptor-ligand ΔTm, head shifted, see doubts",0.2
same,Recruitment of co-activators (additional stabilization in the presence of co-activator protein/peptide),ER-α [1]; result in words,no ability to recruit co-activators
same,ΔTm at 100 µM,"ER-β [2]; ER-β 8 μM, ligand 20 μM, co-repressor peptide NCoR-1 100 μM, change from the receptor-ligand ΔTm, read-out: Observed ΔTm Stabilization, NCoR1-NR1",0.3 °C
same,"Observed ΔTm Stabilization, SRC-3","ER-β [2]; ER-β 8 μM, ligand 20 μM, average of four experiments, head shifted, see doubts",16.7
same,"Observed ΔTm Stabilization, NR2","ER-β [2]; ER-β 8 μM, ligand 20 μM, change in Tm stabilization from the receptor-ligand ΔTm, head shifted, see doubts",0.4
same,Recruitment of co-activators (additional stabilization in the presence of co-activator protein/peptide),ER-β [2]; result in words,no ability to recruit co-activators
CC(=O)[C@@]1(O)CC[C@H]2[C@@H]3CCC4=CC(=O)CC[C@]4(C)[C@H]3CC[C@@]21C [17-α-hydroxyprogesterone],Probability Agonist (statistical probability of agonist state),SXR,0.47
C[C@]12CCC(=O)C=C1CC[C@@H]1[C@@H]2[C@@H](O)C[C@@]2(C)[C@H]1CC[C@]2(O)C(=O)CO [Hydrocortisone],Kd,SXR,17 µM
same,ΔΔTm SRC1-NR2,SXR; [19],3.3
same,ΔTm ligand,"SXR; SXR 6 μM, ligand 50 μM",1.6 °C
same,Probability Agonist (statistical probability of agonist state),SXR,0.44
same,ΔTm at 100 µM,SXR,3.7 °C
C[C@]12CCC(=O)C=C1CC[C@@H]1[C@@H]2C(=O)C[C@@]2(C)[C@H]1CC[C@]2(O)C(=O)CO [Cortisone],ΔΔTm NcoR1-NR2,"SXR; SXR 6 μM, ligand 50 μM, co-repressor peptide NCoR-1 100 μM, change from the receptor-ligand ΔTm",3.6
same,Probability Agonist (statistical probability of agonist state),SXR,0.37
B1,change in Tm stabilization from the receptor-ligand ΔTm,ER-α [3],0.7
same,change in Tm stabilization from the receptor-ligand ΔTm,ER-α [4],2.3
same,change in Tm stabilization from the receptor-ligand ΔTm,ER-β [5],4.4
same,change in Tm stabilization from the receptor-ligand ΔTm,ER-β [6],3.5
same,change in Tm stabilization from the receptor-ligand ΔTm,ER-α [7],4.3
same,change in Tm stabilization from the receptor-ligand ΔTm,ER-β [8],0.9
same,change in Tm stabilization from the receptor-ligand ΔTm,ER-α [9],0.9
same,change in Tm stabilization from the receptor-ligand ΔTm,ER-α [10],3.9
same,change in Tm stabilization from the receptor-ligand ΔTm,ER-α [11],0.2
same,change in Tm stabilization from the receptor-ligand ΔTm,ER-β [12],2.6
same,change in Tm stabilization from the receptor-ligand ΔTm,ER-β [13],0.8
same,change in Tm stabilization from the receptor-ligand ΔTm,ER-α [14],0
same,change in Tm stabilization from the receptor-ligand ΔTm,ER-β [15],0.6
same,change in Tm stabilization from the receptor-ligand ΔTm,ER-β [16],3.7
same,change in Tm stabilization from the receptor-ligand ΔTm,ER-α [17],4.3
same,change in Tm stabilization from the receptor-ligand ΔTm,ER-β [18],0.4
